Columns and labels:
Assay in all cases: biochemical
Parameters in all cases: Cerep/Eurofins selectivity panel, receptors, channels and transporters, per cent inhibition at 10 uM
Conditions in all cases: read-out: % Inhibition
[1] = target: T1, Adenosine A1 (Homo sapiens, UniProt P30542)
T1 construct: gene ADORA1

[2] = target: T2, Adenosine A2A (Homo sapiens, UniProt P29274)
T2 construct: gene ADORA2A

[3] = target: T3, Adenosine A3 (Homo sapiens, UniProt P0DMS8)
T3 construct: gene ADORA3

[4] = target: T4, Adrenergic β2 (Homo sapiens, UniProt P07550)
T4 construct: gene ADRB2

[5] = target: T5, Adrenergic β3 (Homo sapiens, UniProt P13945)
T5 construct: gene ADRB3

[6] = target: T6, Angiotensin AT1 (Homo sapiens, UniProt P30556)
T6 construct: gene AGTR1

[7] = target: T7, Bradykinin B1 (Homo sapiens, UniProt P46663)
T7 construct: gene BDKRB1

[8] = target: T8, Cannabinoid CB1 (Homo sapiens, UniProt P21554)
T8 construct: gene CNR1

[9] = target: T9, Dopamine D1 (Homo sapiens, UniProt P21728)
T9 construct: gene DRD1

[10] = target: T10, Dopamine D2L (Homo sapiens, UniProt P14416)
T10 construct: gene DRD2; long isoform D2L

[11] = target: T11, Dopamine D3 (Homo sapiens, UniProt P35462)
T11 construct: gene DRD3

[12] = target: T12, Estrogen ERβ (Homo sapiens, UniProt Q92731)
T12 construct: gene ESR2

[13] = target: T13, Histamine H2 (Homo sapiens, UniProt P25021)
T13 construct: gene HRH2

[14] = target: T14, Histamine H3 (Homo sapiens, UniProt Q9Y5N1)
T14 construct: gene HRH3

[15] = target: T15, Muscarinic M3 (Homo sapiens, UniProt P20309)
T15 construct: gene CHRM3

[16] = target: T16, Muscarinic M4 (Homo sapiens, UniProt P08173)
T16 construct: gene CHRM4

[17] = target: T17, Opiate κ(OP2, KOP) (Homo sapiens, UniProt P41145)
T17 construct: gene OPRK1

[18] = target: T18, Opiate μ(OP3, MOP) (Homo sapiens, UniProt P35372)
T18 construct: gene OPRM1

[19] = target: T19, Progesterone PR-B (Homo sapiens, UniProt P06401)
T19 construct: gene PGR; PR-B isoform

[20] = target: T20, Serotonin (5-Hydroxytryptamine) 5-HT2B (Homo sapiens, UniProt P41595)
T20 construct: gene HTR2B

[21] = target: T21, Serotonin (5-Hydroxytryptamine) 5-HT3 (Homo sapiens, UniProt P46098)
T21 construct: gene HTR3A

[22] = target: T22, Tachykinin NK1 (Homo sapiens, UniProt P25103)
T22 construct: gene TACR1

[23] = target: T23, Tachykinin NK3 (Homo sapiens, UniProt P29371)
T23 construct: gene TACR3

[24] = target: T24, Transporter, Norepinephrine (NET) (Homo sapiens, UniProt P23975)
T24 construct: gene SLC6A2

[25] = target: T25, Vasopressin V1a (Homo sapiens, UniProt P37288)
T25 construct: gene AVPR1A

T16 sequence (P08173 whole entry): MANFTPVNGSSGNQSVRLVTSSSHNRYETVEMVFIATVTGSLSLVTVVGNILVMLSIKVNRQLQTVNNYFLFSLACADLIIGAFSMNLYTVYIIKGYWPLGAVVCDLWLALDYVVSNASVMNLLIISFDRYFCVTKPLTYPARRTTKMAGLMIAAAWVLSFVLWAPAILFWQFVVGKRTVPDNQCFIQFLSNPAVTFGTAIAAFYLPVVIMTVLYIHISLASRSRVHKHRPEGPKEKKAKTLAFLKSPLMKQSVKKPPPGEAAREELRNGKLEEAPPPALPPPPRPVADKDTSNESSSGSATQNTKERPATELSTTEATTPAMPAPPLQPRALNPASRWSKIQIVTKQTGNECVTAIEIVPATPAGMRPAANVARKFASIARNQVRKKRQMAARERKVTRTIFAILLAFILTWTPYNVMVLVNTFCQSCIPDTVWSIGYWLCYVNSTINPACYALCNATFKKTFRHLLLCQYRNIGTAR
T6 sequence (P30556 whole entry): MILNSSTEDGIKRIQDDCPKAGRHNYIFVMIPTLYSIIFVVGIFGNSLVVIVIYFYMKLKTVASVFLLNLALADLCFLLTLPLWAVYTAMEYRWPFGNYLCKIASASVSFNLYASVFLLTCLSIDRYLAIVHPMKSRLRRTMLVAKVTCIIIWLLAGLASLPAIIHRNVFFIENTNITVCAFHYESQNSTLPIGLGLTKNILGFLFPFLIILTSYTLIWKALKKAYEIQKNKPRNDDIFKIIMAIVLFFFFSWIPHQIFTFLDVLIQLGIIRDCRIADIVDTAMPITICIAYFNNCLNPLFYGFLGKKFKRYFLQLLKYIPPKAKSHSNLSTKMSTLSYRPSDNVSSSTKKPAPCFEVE
T15 sequence (P20309 whole entry): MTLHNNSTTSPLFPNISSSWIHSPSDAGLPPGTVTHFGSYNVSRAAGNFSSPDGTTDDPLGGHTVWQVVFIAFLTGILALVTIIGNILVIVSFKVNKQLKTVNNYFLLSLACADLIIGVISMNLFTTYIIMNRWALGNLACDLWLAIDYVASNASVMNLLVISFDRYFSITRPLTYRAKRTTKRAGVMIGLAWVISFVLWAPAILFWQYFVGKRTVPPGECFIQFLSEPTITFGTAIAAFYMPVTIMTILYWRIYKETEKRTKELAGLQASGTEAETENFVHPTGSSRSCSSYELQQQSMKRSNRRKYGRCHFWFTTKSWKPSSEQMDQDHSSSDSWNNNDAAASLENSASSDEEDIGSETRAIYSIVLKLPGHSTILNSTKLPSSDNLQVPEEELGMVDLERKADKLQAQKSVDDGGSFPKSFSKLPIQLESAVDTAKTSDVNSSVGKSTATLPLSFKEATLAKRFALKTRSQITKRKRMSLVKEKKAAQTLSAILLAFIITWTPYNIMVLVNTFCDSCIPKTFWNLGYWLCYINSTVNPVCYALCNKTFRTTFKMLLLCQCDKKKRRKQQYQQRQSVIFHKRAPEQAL
T11 sequence (P35462 whole entry): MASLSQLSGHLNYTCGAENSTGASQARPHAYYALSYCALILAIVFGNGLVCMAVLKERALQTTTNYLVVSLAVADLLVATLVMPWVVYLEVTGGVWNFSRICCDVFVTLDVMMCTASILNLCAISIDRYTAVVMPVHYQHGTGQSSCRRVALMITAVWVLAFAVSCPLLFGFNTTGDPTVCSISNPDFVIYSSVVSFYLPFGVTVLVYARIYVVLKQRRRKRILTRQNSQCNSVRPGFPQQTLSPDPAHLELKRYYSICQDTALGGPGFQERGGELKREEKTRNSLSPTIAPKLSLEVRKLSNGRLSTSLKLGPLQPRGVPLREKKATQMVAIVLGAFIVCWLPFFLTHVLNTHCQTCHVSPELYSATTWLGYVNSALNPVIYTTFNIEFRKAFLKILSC
T14 sequence (Q9Y5N1 whole entry): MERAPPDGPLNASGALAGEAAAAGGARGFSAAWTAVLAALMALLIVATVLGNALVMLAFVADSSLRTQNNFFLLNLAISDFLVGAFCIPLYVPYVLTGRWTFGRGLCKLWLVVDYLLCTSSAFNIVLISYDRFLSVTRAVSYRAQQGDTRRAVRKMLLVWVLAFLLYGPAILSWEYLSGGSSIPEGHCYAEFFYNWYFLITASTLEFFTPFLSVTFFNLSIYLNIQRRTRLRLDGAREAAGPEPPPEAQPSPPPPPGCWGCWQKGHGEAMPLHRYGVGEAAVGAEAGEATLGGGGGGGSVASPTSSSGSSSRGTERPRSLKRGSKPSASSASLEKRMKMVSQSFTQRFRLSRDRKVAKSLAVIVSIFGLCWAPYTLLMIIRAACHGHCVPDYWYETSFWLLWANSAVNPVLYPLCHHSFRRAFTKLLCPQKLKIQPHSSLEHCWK
T9 sequence (P21728 whole entry): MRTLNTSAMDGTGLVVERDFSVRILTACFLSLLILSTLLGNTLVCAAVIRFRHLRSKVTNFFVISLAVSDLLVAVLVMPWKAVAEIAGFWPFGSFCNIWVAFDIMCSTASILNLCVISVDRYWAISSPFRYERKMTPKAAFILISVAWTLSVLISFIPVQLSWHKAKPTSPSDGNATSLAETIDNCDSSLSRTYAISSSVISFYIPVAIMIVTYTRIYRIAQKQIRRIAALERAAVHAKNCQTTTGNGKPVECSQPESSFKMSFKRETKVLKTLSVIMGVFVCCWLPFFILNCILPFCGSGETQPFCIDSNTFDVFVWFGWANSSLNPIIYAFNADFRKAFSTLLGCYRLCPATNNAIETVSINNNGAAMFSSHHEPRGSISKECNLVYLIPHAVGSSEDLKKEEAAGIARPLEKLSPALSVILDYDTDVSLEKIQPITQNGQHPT
T5 sequence (P13945 whole entry): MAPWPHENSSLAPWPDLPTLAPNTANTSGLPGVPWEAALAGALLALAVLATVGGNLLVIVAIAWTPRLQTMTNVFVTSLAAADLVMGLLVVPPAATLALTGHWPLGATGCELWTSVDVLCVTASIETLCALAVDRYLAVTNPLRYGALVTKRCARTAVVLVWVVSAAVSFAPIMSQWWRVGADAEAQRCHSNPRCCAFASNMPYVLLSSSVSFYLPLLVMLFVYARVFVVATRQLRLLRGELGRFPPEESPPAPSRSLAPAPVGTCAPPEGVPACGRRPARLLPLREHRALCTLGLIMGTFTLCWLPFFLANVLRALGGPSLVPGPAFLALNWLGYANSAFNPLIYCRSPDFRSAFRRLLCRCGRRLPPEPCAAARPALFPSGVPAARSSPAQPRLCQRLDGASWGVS
T21 sequence (P46098 whole entry): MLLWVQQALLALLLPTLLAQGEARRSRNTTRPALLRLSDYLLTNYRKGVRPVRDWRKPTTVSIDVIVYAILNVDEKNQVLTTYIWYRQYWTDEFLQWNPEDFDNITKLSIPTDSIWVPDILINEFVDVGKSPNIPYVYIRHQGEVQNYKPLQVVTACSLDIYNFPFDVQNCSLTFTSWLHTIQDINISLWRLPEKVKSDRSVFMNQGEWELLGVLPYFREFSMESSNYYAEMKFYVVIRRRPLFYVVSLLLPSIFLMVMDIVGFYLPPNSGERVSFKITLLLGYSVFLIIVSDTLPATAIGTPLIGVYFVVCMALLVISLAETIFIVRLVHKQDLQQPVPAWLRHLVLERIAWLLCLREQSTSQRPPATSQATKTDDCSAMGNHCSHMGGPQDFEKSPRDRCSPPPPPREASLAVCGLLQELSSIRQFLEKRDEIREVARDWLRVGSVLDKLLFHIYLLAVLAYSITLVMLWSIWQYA
T8 sequence (P21554 whole entry): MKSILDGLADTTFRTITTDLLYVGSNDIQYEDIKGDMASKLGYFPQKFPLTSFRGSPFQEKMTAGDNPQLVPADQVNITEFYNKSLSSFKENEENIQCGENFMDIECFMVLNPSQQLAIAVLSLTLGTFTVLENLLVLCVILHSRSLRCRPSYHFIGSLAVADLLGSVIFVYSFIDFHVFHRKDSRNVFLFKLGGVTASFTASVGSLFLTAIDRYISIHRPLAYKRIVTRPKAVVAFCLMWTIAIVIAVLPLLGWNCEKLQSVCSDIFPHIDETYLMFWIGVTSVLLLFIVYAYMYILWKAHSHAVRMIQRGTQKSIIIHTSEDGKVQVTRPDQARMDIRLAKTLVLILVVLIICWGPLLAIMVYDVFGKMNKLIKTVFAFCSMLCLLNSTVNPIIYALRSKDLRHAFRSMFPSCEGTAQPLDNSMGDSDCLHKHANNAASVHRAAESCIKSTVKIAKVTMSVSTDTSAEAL
T13 sequence (P25021 whole entry): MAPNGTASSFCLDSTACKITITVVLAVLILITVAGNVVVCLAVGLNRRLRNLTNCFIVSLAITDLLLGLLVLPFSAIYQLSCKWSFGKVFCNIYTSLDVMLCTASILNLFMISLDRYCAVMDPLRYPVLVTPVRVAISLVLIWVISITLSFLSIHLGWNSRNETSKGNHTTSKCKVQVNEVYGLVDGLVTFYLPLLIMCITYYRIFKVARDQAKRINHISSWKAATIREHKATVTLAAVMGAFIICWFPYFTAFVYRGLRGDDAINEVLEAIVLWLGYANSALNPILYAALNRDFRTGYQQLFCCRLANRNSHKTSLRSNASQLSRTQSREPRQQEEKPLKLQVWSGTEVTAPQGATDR
T23 sequence (P29371 whole entry): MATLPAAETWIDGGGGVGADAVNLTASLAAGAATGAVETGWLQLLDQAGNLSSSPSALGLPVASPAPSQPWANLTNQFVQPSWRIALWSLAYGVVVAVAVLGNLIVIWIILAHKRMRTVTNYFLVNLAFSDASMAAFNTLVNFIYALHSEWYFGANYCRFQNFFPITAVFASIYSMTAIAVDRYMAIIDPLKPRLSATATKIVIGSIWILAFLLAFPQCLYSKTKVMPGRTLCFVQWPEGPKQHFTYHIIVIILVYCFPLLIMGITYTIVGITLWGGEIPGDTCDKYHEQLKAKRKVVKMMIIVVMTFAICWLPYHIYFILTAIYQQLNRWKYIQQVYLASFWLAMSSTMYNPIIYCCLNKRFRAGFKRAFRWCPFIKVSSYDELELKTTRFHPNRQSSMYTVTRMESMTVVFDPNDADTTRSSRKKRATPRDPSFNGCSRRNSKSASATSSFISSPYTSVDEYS

Structure (SMILES): C[C@]1(Nc2cnc(C(F)(F)F)cn2)CCC[C@@H]1NC(=O)c1ncccc1-n1nccn1 [CVN45502]
- inhibition at 10 µM [1]: 7%
- inhibition at 10 µM [2]: 2%
- inhibition at 10 µM [3]: -2%
- inhibition at 10 µM [4]: 0%
- inhibition at 10 µM [5]: 0%
- inhibition at 10 µM [6]: -1%
- inhibition at 10 µM [7]: 4%
- inhibition at 10 µM [8]: 8%
- inhibition at 10 µM [9]: 2%
- inhibition at 10 µM [10]: 7%
- inhibition at 10 µM [11]: -2%
- inhibition at 10 µM [12]: 4%
- inhibition at 10 µM [13]: -14%
- inhibition at 10 µM [14]: -4%
- inhibition at 10 µM [15]: -1%
- inhibition at 10 µM [16]: 10%
- inhibition at 10 µM [17]: 3%
- inhibition at 10 µM [18]: -3%
- inhibition at 10 µM [19]: 21%
- inhibition at 10 µM [20]: 4%
- inhibition at 10 µM [21]: -9%
- inhibition at 10 µM [22]: 12%
- inhibition at 10 µM [23]: 27%
- inhibition at 10 µM [24]: -6%
- inhibition at 10 µM [25]: -14%

Source: paper PMC9684079, “Pharmacological targeting of glutamatergic neurons within the brainstem for weight reduction” (Nature Metabolism, 2022)
